These results are taken from US9241939B2, “Combination of (a) a phosphoinositide 3-kinase inhibitor and (b) a modulator of RAS/RAF/MEK pathway” (Novartis AG, priority 2008, dated 2016).

One assay has as its system A549 cells. The assay can be described thus: standard methylene blue proliferation assay. Type of assay: cell-based. The method, then:
The KRAS mutant NSCLC cell line was used in a standard methylene blue proliferation assay.
A549 cells were incubated with increasing amount of either compound A or PD0325901 (NVP-LBW624) alone or in combination, for 72 h and proliferation assessed with a standard methylene blue assay. The G150 were determined and CI quantified with the CalcuSyn software.

A further assay has as its system BN472 tumors. The assay can be described thus: BN472 tumor model. Type of assay: in vivo. The note with it: rat, weak and not significant. The method, then:
FIG. 2: Rat bearing BN472 tumors were treated with the indicated compound at the indicated dose and schedule, either alone or in combination. Evolution of tumor growth were followed by callipering throughout the course of the study. *, P<0.05 (Dunnett's).
FIG. 3: Rat bearing BN472 tumors were treated with the indicated compound at the indicated dose and schedule, either alone or in combination. Evolution of body weight were followed throughout the course of the study. *, P<0.05 (Dunnett's).
In the BN472 tumor model administration of compound A at a dose of 10 mg/kg (p.o., 1q24h) or the Raf inhibitor Raf265 (at a dose of 2.5 mg/kg, po, […]) produced a weak and not significant antitumor activity (expressed as T/C) of either 83 and 76. The combination of compound A (10 mg/kg) with RAF265, however, produced a strong and statistically significant antitumor activity with a T/C of 34% (FIG. 2).

Assay [1] relates to Akt; p70S6K or ERK in A549 cells. Description: Western-blotting of phosphorylated Akt, p70S6K and ERK. The following applies: incubated alone, 30 min, PD03251901 250 nM. Format: cell-based. The method, then: FIG. 1: A549 cells were incubated either with compound A, PD03251901 (250 nM) alone or in combination for 30 min. Cells were then harvested and estimation of phosphorylated levels of either Akt; p70S6K or ERK done by regular Western-blotting.

Like-named read-outs stand apart in the source and are kept apart here.

As a reminder, the GI50 is the concentration that inhibits growth by half. Consider `Cn1c(=O)n(-c2ccc(C(C)(C)C#N)cc2)c2c3cc(-c4cnc5ccccc5c4)ccc3ncc21` [Compound A, 2-methyl-2-[4-(3-methyl-2-oxo-8-quinolin-3-yl-2,3-dihydro-imidazo[4,5-c]quinolin-1-yl)-phenyl]-propionitrile], for which the GI50 turned out to be 4.46 nM in the assay with A549 cells (A549 cells, 72 h, compound A and PD0325901 (NVP-LBW624) in combination, read-out: GI50 (in nM) in combination); 9.41 nM in the assay on A549 cells (Homo sapiens, A549, 72 h, A549 cells (KRAS mutant NSCLC), 72 h, single agent, read-out: GI50 (in nM) alone); 3.2 nM with A549 cells (Homo sapiens, A549, 72 h, A549 cells, 72 h, compound A and PD0325901 (NVP-LBW624) in combination, read-out: GI50 (in nM) in combination). The “Combination Index (CI)” value in the assay with A549 cells (A549 cells, 72 h, compound A with PD0325901 (NVP-LBW624), CalcuSyn software) is 0.718. The “times less BEZ235 required for a similar decrease in proliferation” value with A549 cells (in presence of PD0325901) was 3 times. Further, in the assay with BN472 tumors (compound A 10 mg/kg p.o. 1q24h alone), the “antitumor activity (expressed as T/C)” value was determined as 83. For the same molecule, in assay [1], the “block of respective downstream effectors (ERK and Akt)” value is “do block their respective downstream effectors”.

Regarding `O=C(NOC[C@H](O)CO)c1ccc(F)c(F)c1Nc1ccc(I)cc1F` [PD0325901, reference compound], the GI50 with A549 cells (Homo sapiens, A549, 72 h, read-out: GI50 (in nM) alone) was 36.8 nM; in the assay on A549 cells (Homo sapiens, A549, 72 h, read-out: GI50 (in nM) in combination) it was 11.5 nM. Moreover, the “block of respective downstream effectors (ERK and Akt)” value in assay [1] is recorded as “do block their respective downstream effectors”.

With `Cn1c(Nc2ccc(C(F)(F)F)cc2)nc2cc(Oc3ccnc(-c4ncc(C(F)(F)F)[nH]4)c3)ccc21` [RAF265, reference compound], the “antitumor activity (expressed as T/C)” value in the assay on BN472 tumors (Raf265 2.5 mg/kg po q24h alone) amounted to 76.
